Measured values as given in patent US20260021119A1, “TETRACYCLINE DERIVATIVES” (ICM (INSTITUT DU CERVEAU ET DE LA MOELLE ÉPINIÈRE), priority 2022, published 2026).

Columns and labels:
[1] = tested on: primary mouse microglial cells (TNF-a release, LPS 10 ng/ml); assay: Anti-inflammatory effect in LPS-activated primary mouse microglial cells, TNF-a ELISA; format: cell-based
Protocol: Primary mouse microglial cells cultivated in Dulbecco's Modified Eagle Medium (DMEM) with no serum and 15 mM Hepes were challenged with lipopolysaccharide (LPS, 10 ng/ml) for 24 hours in the presence or not of the compound of formula (Ib) according to the present invention at concentrations of 1 μM, 5 μM, 25 μM and 50 μM. After that, the release of the proinflammatory cytokine TNF-a was estimated with an ELISA kit (ThermoFisher Scientific).

4 test bacterial strains = assay: Antimicrobial effects, summary over the 4 test bacterial strains (Example 9); format: cell-based
Source text: (§1) Bacterial strains used in this study were: S. aureus (ATCC25923), E. coli (ATCC28922), E. faecalis (ATCC29212) and P. aeruginosa (PA01). The minimum inhibitory concentrations (MICs) were estimated using standardized protocols (Mawabo et al, J. Infect. Public Health 2015).

[2] = tested on: p-tau (phosphorylated tau protein at Ser202, Thr205 residues); assay: p-tau (AT8) expression in cultured cortical neurons under oxidative stress; format: cell-based, mouse; set-up: key to Reduction of the % of p-tau+ somas: a favorable response, synonymous with a decrease in the number of p-tau+ cell bodies; ++: a favorable response, synonymous with a decrease in the number of p-tau+ cell bodies; +++=reference level; an unfavorable response is represented by a sign “−”, synonymous with an elevation of the number of p-tau+ cell bodies; overexpression of p-tau in cortical cell bodies: dose or concentration left out as unconfirmed
Protocol: A culture model of cortical neurons from mouse embryonic brain was used, in which neuronal cells were subjected to a maturation step until day in vitro (div) 7, before being gradually exposed to phenol red formulated DMEM/Nutrient mixture F12 Ham supplemented with 20 μg/mL of insulin, and 2 μM of the NMDA receptor blocker MK-801 (DF12i).
Precisely, after 4 days of exposure to DF12i, between 10-15% of surviving neurons show a very strong AT8 immunosignal in their somas while only 1 to 1.5% of neuronal cell bodies are found immunopositive under conditions where oxidative stress is repressed by treatment with bovine apotransferrin (APO; 100 µg/mL, Sigma Aldrich), a glycoprotein with iron chelating properties. Likewise, overexpression of p-tau in cortical cell bodies is reduced by the two non-antibiotic tetracyclines compound of formula (C) ([…]) and compound of formula (Ib) ([…]): see the following Table: […]

dopamine neurons = assay: Neuroprotection in midbrain mouse cultures, survival of TH+ dopamine neurons; format: cell-based; details: 0.5 μM, 1 μM and 5 μM, div14
Protocol: (§2) Midbrain mouse cultures were subjected to a maturation step until day in vitro (div) 7, and then gradually exposed to phenol red formulated DMEM/Nutrient mixture F12 Ham supplemented with 20 μg/mL of insulin and 2 μM of the NMDA receptor blocker MK-801. Under these conditions, which favor low-level, sustained oxidative insults, and lead ultimately to dopamine cell death, treatments with the compound of formula (Ib) according to the invention (at a concentration ranging from 0.1 to 5 μM) were performed or not, as well as treatments with the reference tetracycline antibiotic doxycycline (DOX; 10 μM) and the glycoprotein apotransferrin (APO; 100 μg/mL), the latter being used as reference neuroprotectant. At div14, cultures were fixed, and then processed for tyrosine hydroxylase (TH) immunocytochemistry to estimate the survival of dopamine neurons.
as §2, with “(Ic)” for “(Ib)”, “with” for “with the reference tetracycline antibiotic doxycycline (DOX; 10 μM) and”

E. faecalis ATCC 29212 = assay: MIC, standardized protocols (Example 9); format: cell-based; details: Enterococcus faecalis, ATCC29212
Source text: as §1

E. coli ATCC 28922 = assay: MIC, standardized protocols (Example 9); format: cell-based; details: Escherichia coli, ATCC28922
Source text: as §1

P. aeruginosa PA01 = assay: MIC, standardized protocols (Example 9); format: cell-based; details: Pseudomonas aeruginosa
Source text: as §1

S. aureus ATCC 25923 = assay: MIC, standardized protocols (Example 9); format: cell-based; details: Staphylococcus aureus, ATCC25923
Source text: as §1

bacteria = assay: Antimicrobial effect against bacteria (Example 13, no method given); format: cell-based

SMILES | reduction of proinflammatory effects of LPS (TNF-a release) ([1]; between 5 μM to 50 μM, LPS 10 ng/ml, 24 hours) | antimicrobial effects against the 4 test bacterial strains (4 test bacterial strains) | overexpression of p-tau in cortical cell bodies [2] | Reduction of the % of p-tau+ somas ([2]; compounds 3 μM, APO 100 μg/mL, mouse cortical cultures exposed div 7-11 to DF12i) | neuroprotective effect (survival of dopamine neurons) (dopamine neurons) | MIC (E. faecalis ATCC 29212) | MIC (E. coli ATCC 28922) | MIC (P. aeruginosa PA01) | MIC (S. aureus ATCC 25923) | anti-inflammatory effects vis-à-vis 10 ng/mL LPS ([1]; 5 μM, 25 μM and 50 μM) | antimicrobial effect against bacteria (bacteria)
C[C@@]1(O)c2cccc(O)c2C(=O)C2=C(O)C3C(=O)C(C(N)=O)=C(O)C[C@@H]3[C@@H](O)[C@@H]21 (stereo partly drawn) [Compound of formula (Ib), (4aS,5R,5aR,6S)-3,5,6,10,12-pentahydroxy-6-methyl-1,11-dioxo-1,4,4a,5,5a,6,11,12a-octahydrotetracene-2-carboxamide] | reduces significantly | effective against none of them | reduced | +++ | highly protective | 100 µM | > 200 µM | > 200 µM | 100 µM |  | 
C[C@@]1(O)c2cccc(O)c2C(=O)C2=C(O)C3C(=O)C(C(N)=O)=C(O)CC3CC21 (stereo partly drawn) [Compound of formula (Ic)] |  |  |  |  | highly protective |  |  |  |  | has anti-inflammatory effects | does not show any antimicrobial effect
